Results on one molecule are retold here after patent US20210163453A1, “DERIVATIVES OF PAPAVERINE THAT ARE EFFECTIVE HYPOXIC TUMOR RADIOSENSITIZERS” (Ohio State Innovation Foundation, priority 2018, published 2021).

“Also recorded” adds a separate entry of the source.

In one data set the test system is A549 cells. The data set can be described thus: Trypan blue cell viability of A549 cells in normoxia and hypoxia. The settings on record: 100 μM papaverine, 72 h. The class given is cell-based, Human. On the procedure: FIGS. 2A-2D are OCR measurements and cell viability assessments. FIG. 2A-2B are representative of OCR measurement in competition assay between PPV and complex I inhibitors piericidin A (FIG. 2A) and capsaicin (FIG. 2B). Values represent the means+−SD. FIGS. 2C-2D show trypan blue cell viability assessment (of n=3) of A549 cells treated with 100 μM papaverine or 1 μM rotenone in normoxia (FIG. 2C) and hypoxia (FIG. 2D) (T=72 h). Bar charts represent mean of viable cells in duplicates+−standard deviation.
Experimental: Cell lines. All cell lines were purchased from the American Type Culture Collection (ATCC) and grown DMEM (Corning) supplemented with 10% FBS (Seradigm) and 1% Penicillin/Streptomycin (Fisher Bioreagents) at 37° C. in 5% CO2. Cells were treated with inhibitors papaverine hydrochloride (Sigma-Aldrich), rotenone (Sigma-Aldrich), piericidin A (Santa Cruz), capsaicin (Sigma-Aldrich), antimycin A (Sigma-Aldrich) and succinic acid disodium salt (Sigma-Aldrich). Cell viability was assessed by trypan blue exclusion.

Data set [1] concerns EO771 or A549 flank tumors. Put plainly: FD-NIRS tissue oxygenation in tumor-bearing mice. Type of data set: in vivo. The procedure: In vivo oxygenation measurements. All animal experiments were performed according to protocols approved by institutional IACUC review, with daily veterinarian observation. 2×10^6 EO771 or 5×10^6 A549 cells were injected s.c. into the flanks of 6-week old female immunocompromised nu/nu mice. Caliper measurements of opposing diameters were used to calculate the tumor volumes. Upon reaching […], the animals were anesthetized by inhalation of 1.5% isoflurane and tumor and thigh muscle oxygenation was measured with NIRS optical probe for 30 minutes. Once the baseline oxygenation was established, the animals were injected with either 2 mg per kg of body weight of papaverine hydrochloride or saline by tail vein. Tissue oxygenation was measured for 120 minutes. Obtained oxygenation values were normalized to time of injection and average of 5 traces per treatment averaged. Error bars represent the standard deviation.
Frequency-domain near-infrared spectroscopy (FD-NIRS) can noninvasively quantify tissue hemoglobin concentration (THb) and oxygenation (SO2) in real time. This technology uses light in the 700-800 nm wavelength because it has reasonably good tissue penetration (nominally 1-2 cm in depth). A FD-NIRS system with a novel side firing probe to measure changes in tumor oxygenation in response to pharmacological intervention was developed and used in this example. This example has generated in vivo data showing that papaverine can increase oxygenation in xenografted tumors in mice.
The FD-NIRS instrument consists of a network analyzer as the radio frequency (RF) source and phase-sensitive detection system, a 1×4 RF switch, a 4×2 optical switch, a multi-channel laser diode controller, four laser diodes (654, 779, 805 and 847 nm) installed in mounts with a bias-T, an avalanche photodiode (APD) module, and a laptop computer loaded with custom software. The surface probe consists of two side-firing source fibers (200/220/240 µm, NA=0.22) and a single side-firing detection fiber (600/660/710 µm, NA=0.22), providing two source-detector separations (SDSs) of 5 and 10 mm, respectively. The fiber tips are polished to a […] and coated with a mirror to create a light path perpendicular to the fiber. All the fiber tips are epoxied into a V-groove on a thin Delrin plate (biocompatible) so that it can be easily attached to the skin surface above a tumor. The two SDSs allow elimination of artifacts due to instrument response and the skin effects, while providing a penetration depth around 10-15 mm in typical tissue.
The FD-NIRS instrument launches intensity-modulated continuous wave lasers into the tissue and collects the amplitude-attenuated and phase-shifted diffuse reflectance from the tissue at the same frequency of the incident light, both through the side-firing probe. […]

Data set [2] concerns A549 NDUFV1 KO NDI1 cells. Type of data set: cell-based, Human. The following applies: 10 μM papaverine or 1 μM rotenone.

On to `COc1ccc(Cc2nccc3cc(OC)c(OC)cc23)cc1OC` [PPV, papaverine], for which the “cellular toxicity in normoxia or hypoxia in vitro” value in the data set with A549 cells is “no cellular toxicity”. In addition, in data set [1] (2 mg/kg by tail vein, within first 30-45 minutes), the “tumor oxygenation” value is on record as “significantly increased the oxygenation; also recorded: statistically significant”. The “oxygenation of normal thigh muscle” value in data set [1] (2 mg/kg i.v.) is “no significant change”; in data set [1] (2 mg/kg i.v., listed as papaverine), “no change was detected”. Also, the “maximum tumor oxygenation above baseline” value in data set [1] (2 mg/kg i.v., 30 min post injection) is listed as 1.35-1.45 × above baseline. In addition, the “response of mitochondria (OCR) to drug” value in data set [2] is on record as “resistant”.
